For orientation: Kd means the equilibrium constant for the complex coming apart. A low value points to higher affinity.

Data on three molecules can be found in BindingDB's records for doi:10.1021/acs.biochem.7b00041 (North Carolina State University, 2017).

In this assay the target is T1, Dehaloperoxidase B (Amphitrite ornata, UniProt Q9NAV7).
T1 sequence (Q9NAV7 whole entry): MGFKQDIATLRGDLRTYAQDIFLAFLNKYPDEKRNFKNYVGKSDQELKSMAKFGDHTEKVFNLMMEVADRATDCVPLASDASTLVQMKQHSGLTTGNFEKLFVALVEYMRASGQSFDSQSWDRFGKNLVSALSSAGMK
Put plainly: Resonance Raman Assay. The settings on record: pH 7. The method, then:
Samples for solution resonance Raman spectroscopic studies were prepared withfinal concentrations of 75 μM WT DHP B and 3.75 mM azole in 100 mM KPi (pH 7 or 9) containing 10% MeOH (v/v) and then transferred to a 5 mm outside diameter glass NMR tube. Anaerobic samples were prepared inside a glovebox in the same fashion using septum-capped NMR tubes. Spectra were recorded by Soret band excitation (400−430 nm, 60 mW power) as previously described. [Barrios et al., J. Am. Chem. Soc., 136:7914-7925]
`c1c[nH]cn1` gave a Kd of 52 µM. On to “1,2,3-benzotriazole::Benzotriazole (Bta)”, for which the dissociation constant (Kd) is 82 µM. Take `c1ccc2[nH]cnc2c1` [1H-1,3-benzodiazole]: the affinity, expressed as Kd, was 110 µM.
